In patent US7767659B2, “Synthesis of naturally occurring ecteinascidins and related compounds” (Pharma Mar, S.A., priority 2002, dated 2010):

What was measured:
IGROV-1 = assay: Inhibition of cells growth by colorimetric assay (SRB); details: Homo sapiens, IGROV-1, 48 h; for GI50: read-out: IGROV GI50; for CC50: read-out: IGROV LC50; for IC (TGI): read-out: IGROV TGI
Procedure, shortened: (§1)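 Colorimetric SRB read (490 nm) on triplicate wells after 48 h at 37 °C, 5% CO2. Dose range 10 to 10^−8 μg/ml; 5×10^3 cells/well pre-attached 18 h.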

SK-BR-3 = assay: as above; details: Homo sapiens, SK-BR-3, 48 h; for GI50: read-out: SK-BR3 GI50; for CC50: read-out: SK-BR3 LC50; for IC (TGI): read-out: SK-BR3 TGI
Procedure, shortened: as §1

LoVo-Dox = assay: as above; details: Homo sapiens, 48 h; for GI50: read-out: LOVO-DOX GI50; for CC50: read-out: LOVO-DOX LC50; for IC (TGI): read-out: LOVO-DOX TGI
Procedure, shortened: as §1

HeLa-APL = assay: as above; details: Homo sapiens, 48 h; for GI50: read-out: HELA-APL GI50; for CC50: read-out: HELA-APL LC50; for IC (TGI): read-out: HELA-APL TGI
Procedure, shortened: as §1

DU-145 = assay: as above; details: Homo sapiens, DU-145, 48 h; for GI50: read-out: DU145 GI50; for CC50: read-out: DU145 LC50; for IC (TGI): read-out: DU145 TGI
Procedure, shortened: as §1

LNCaP = assay: as above; details: Homo sapiens, LNCaP, 48 h; for GI50: read-out: LNCAP GI50; for CC50: read-out: LNCAP LC50; for IC (TGI): read-out: LNCAP TGI
Procedure, shortened: as §1

PANC-1 = assay: as above; details: Homo sapiens, PANC-1, 48 h; for GI50: read-out: PANC-1 GI50; for CC50: read-out: PANC-1 LC50; for IC (TGI): read-out: PANC-1 TGI
Procedure, shortened: as §1

K-562 = assay: as above; details: Homo sapiens, K562, 48 h; for GI50: read-out: K562 GI50; for CC50: read-out: K562 LC50; for IC (TGI): read-out: K562 TGI
Procedure, shortened: as §1

HeLa = assay: as above; details: Homo sapiens, HeLa, 48 h; for GI50: read-out: HELA GI50; for CC50: read-out: HELA LC50; for IC (TGI): read-out: HELA TGI
Procedure, shortened: as §1

SK-MEL-28 = assay: as above; details: Homo sapiens, SK-MEL-28, 48 h; for GI50: read-out: MEL-28 GI50; for CC50: read-out: MEL-28 LC50; for IC (TGI): read-out: MEL-28 TGI
Procedure, shortened: as §1

IGROV-ET = assay: as above; details: Homo sapiens, 48 h; for GI50: read-out: IGROV-ET GI50; for CC50: read-out: IGROV-ET LC50; for IC (TGI): read-out: IGROV-ET TGI
Procedure, shortened: as §1

A-549 = assay: cells; details: Homo sapiens, A549, 48 h; for GI50: read-out: A549 GI50; for CC50: read-out: A549 LC50; for IC (TGI): read-out: A549 TGI
Procedure, shortened: as §1

HT-29 = assay: cells; details: Homo sapiens, HT-29, 48 h; for GI50: read-out: HT29 GI50; for CC50: read-out: HT29 LC50; for IC (TGI): read-out: HT29 TGI
Procedure, shortened: as §1

LoVo = assay: cells; details: Homo sapiens, LoVo, 48 h; for GI50: read-out: LOVO GI50; for CC50: read-out: LOVO LC50; for IC (TGI): read-out: LOVO TGI
Procedure, shortened: as §1

COc1c(C)cc2c(c1O)[C@H]1N[C@@H](C2)[C@H](O)N2C1[C@@H]1SC[C@]3(NCCc4c3[nH]c3ccc(O)cc43)C(=O)OC[C@H]2c2c3c(c(C)c(OC(C)=O)c21)OCO3 (stereo partly shown) [compound 65]
GI50 (IGROV-1): 4.07 nM | CC50 (IGROV-1): 2990 nM | IC (TGI) (IGROV-1): 11.4 nM | GI50 (SK-BR-3): 2.97 nM | CC50 (SK-BR-3): 209 nM | IC (TGI) (SK-BR-3): 7.66 nM | GI50 (LoVo-Dox): 399 nM | CC50 (LoVo-Dox): 13200 nM | IC (TGI) (LoVo-Dox): 1050 nM | GI50 (HeLa-APL): 2 nM | CC50 (HeLa-APL): 8.46 nM | IC (TGI) (HeLa-APL): 4.1 nM | GI50 (DU-145): 2.63 nM | CC50 (DU-145): 4770 nM | IC (TGI) (DU-145): 6.45 nM | GI50 (LNCaP): 0.875 nM | CC50 (LNCaP): 6.16 nM | IC (TGI) (LNCaP): 2.54 nM | GI50 (PANC-1): 3.99 nM | CC50 (PANC-1): 4250 nM | IC (TGI) (PANC-1): 12.3 nM | GI50 (K-562): 1.22 nM | CC50 (K-562): 7800 nM | IC (TGI) (K-562): 13.9 nM | GI50 (HeLa): 2.34 nM | CC50 (HeLa): 9.99 nM | IC (TGI) (HeLa): 4.82 nM | GI50 (SK-MEL-28): 3.78 nM | CC50 (SK-MEL-28): 42 nM | IC (TGI) (SK-MEL-28): 10.8 nM | GI50 (IGROV-ET): 76 nM | CC50 (IGROV-ET): 3300 nM | IC (TGI) (IGROV-ET): 406 nM | GI50 (A-549): 22.9 nM | CC50 (A-549): 313 nM | IC (TGI) (A-549): 56 nM | GI50 (HT-29): 4.51 nM | CC50 (HT-29): 13200 nM | IC (TGI) (HT-29): 196 nM | GI50 (LoVo): 6.78 nM | CC50 (LoVo): 2960 nM | IC (TGI) (LoVo): 36.9 nM

C=CCN1[C@@H]2c3c(cc(C)c(OC)c3O)C[C@H]1[C@H](C#N)N1C2[C@@H]2SC[C@]3(NCCc4cc(OC(=O)OC(C)(C)C)c(OC)cc43)C(=O)OC[C@H]1c1c3c(c(C)c(O)c12)OCO3 (stereo partly shown) [compound 46]
GI50 (IGROV-1): 29.9 nM | CC50 (IGROV-1): 11700 nM | IC (TGI) (IGROV-1): 72.4 nM | GI50 (SK-BR-3): 18.6 nM | CC50 (SK-BR-3): 247 nM | IC (TGI) (SK-BR-3): 53.2 nM | GI50 (LoVo-Dox): 426 nM | CC50 (LoVo-Dox): 11700 nM | IC (TGI) (LoVo-Dox): 1350 nM | GI50 (HeLa-APL): 27.7 nM | CC50 (HeLa-APL): 97.8 nM | IC (TGI) (HeLa-APL): 52 nM | GI50 (DU-145): 23.4 nM | CC50 (DU-145): 105 nM | IC (TGI) (DU-145): 49.6 nM | GI50 (LNCaP): 14.7 nM | CC50 (LNCaP): 59.2 nM | IC (TGI) (LNCaP): 29.6 nM | GI50 (PANC-1): 61.9 nM | CC50 (PANC-1): 11700 nM | IC (TGI) (PANC-1): 398 nM | GI50 (K-562): 23 nM | CC50 (K-562): 4250 nM | IC (TGI) (K-562): 64.8 nM | GI50 (HeLa): 26.4 nM | CC50 (HeLa): 97.4 nM | IC (TGI) (HeLa): 50.1 nM | GI50 (SK-MEL-28): 29.6 nM | CC50 (SK-MEL-28): 107 nM | IC (TGI) (SK-MEL-28): 56.4 nM | GI50 (IGROV-ET): 285 nM | CC50 (IGROV-ET): 11700 nM | IC (TGI) (IGROV-ET): 1350 nM | GI50 (A-549): 28.9 nM | CC50 (A-549): 2770 nM | IC (TGI) (A-549): 61.8 nM | GI50 (HT-29): 42.9 nM | CC50 (HT-29): 11700 nM | IC (TGI) (HT-29): 117 nM | GI50 (LoVo): 55.3 nM | CC50 (LoVo): 11700 nM | IC (TGI) (LoVo): 304 nM

COC1=C(C)C(=O)C2=C(C1=O)[C@@H]1C3[C@@H]4SC[C@]5(NCCc6c5[nH]c5ccccc65)C(=O)OC[C@@H](c5c6c(c(C)c(OC(C)=O)c54)OCO6)N3[C@@H](O)[C@H](C2)N1C (stereo partly shown) [ET-736-quinone]
GI50 (IGROV-1): 67.1 nM | CC50 (IGROV-1): 735 nM | IC (TGI) (IGROV-1): 215 nM | GI50 (SK-BR-3): 5.33 nM | CC50 (SK-BR-3): 192 nM | IC (TGI) (SK-BR-3): 11.3 nM | GI50 (LoVo-Dox): 747 nM | CC50 (LoVo-Dox): 13000 nM | IC (TGI) (LoVo-Dox): 3280 nM | GI50 (HeLa-APL): 55.5 nM | CC50 (HeLa-APL): 111 nM | IC (TGI) (HeLa-APL): 78.4 nM | GI50 (DU-145): 45.1 nM | CC50 (DU-145): 129 nM | IC (TGI) (DU-145): 76.3 nM | GI50 (LNCaP): 24.8 nM | CC50 (LNCaP): 79.9 nM | IC (TGI) (LNCaP): 44.6 nM | GI50 (PANC-1): 394 nM | CC50 (PANC-1): 13000 nM | IC (TGI) (PANC-1): 957 nM | GI50 (K-562): 4.96 nM | CC50 (K-562): 105 nM | IC (TGI) (K-562): 13.7 nM | GI50 (HeLa): 3320 nM | CC50 (HeLa): 114 nM | IC (TGI) (HeLa): 6140 nM | GI50 (SK-MEL-28): 123 nM | CC50 (SK-MEL-28): 718 nM | IC (TGI) (SK-MEL-28): 300 nM | GI50 (IGROV-ET): 510 nM | CC50 (IGROV-ET): 1200 nM | IC (TGI) (IGROV-ET): 782 nM | GI50 (A-549): 25.6 nM | CC50 (A-549): 109 nM | IC (TGI) (A-549): 52.9 nM | GI50 (HT-29): 51.2 nM | CC50 (HT-29): 13000 nM | IC (TGI) (HT-29): 128 nM | GI50 (LoVo): 265 nM | CC50 (LoVo): 1300 nM | IC (TGI) (LoVo): 596 nM

COc1cc2c(cc1O)CCN[C@]21CS[C@@H]2c3c(OC(C)=O)c(C)c4c(c3[C@H](COC1=O)N1C2C2c3c(cc(C)c(OC)c3O)C[C@@H]([C@@H]1C#N)N2C)OCO4 (stereo partly shown) [Et-770]
GI50 (IGROV-1): 3.32 nM | CC50 (IGROV-1): 13000 nM | IC (TGI) (IGROV-1): 8.51 nM | GI50 (SK-BR-3): 0.986 nM | CC50 (SK-BR-3): 13000 nM | IC (TGI) (SK-BR-3): 94.8 nM | GI50 (LoVo-Dox): 74.1 nM | IC (TGI) (LoVo-Dox): 13000 nM | GI50 (HeLa-APL): 2.96 nM | CC50 (HeLa-APL): 12.2 nM | IC (TGI) (HeLa-APL): 6.01 nM | GI50 (DU-145): 4.16 nM | CC50 (DU-145): 13000 nM | IC (TGI) (DU-145): 32 nM | GI50 (LNCaP): 1.48 nM | CC50 (LNCaP): 6.34 nM | IC (TGI) (LNCaP): 3.06 nM | GI50 (PANC-1): 5.53 nM | CC50 (PANC-1): 13000 nM | IC (TGI) (PANC-1): 115 nM | GI50 (K-562): 1.65 nM | CC50 (K-562): 6630 nM | IC (TGI) (K-562): 8.02 nM | GI50 (HeLa): 5.09 nM | IC (TGI) (HeLa): 12.6 nM | GI50 (SK-MEL-28): 2.63 nM | CC50 (SK-MEL-28): 10.8 nM | IC (TGI) (SK-MEL-28): 5.34 nM | GI50 (IGROV-ET): 12.1 nM | CC50 (IGROV-ET): 13000 nM | IC (TGI) (IGROV-ET): 4500 nM | GI50 (A-549): 3.24 nM | CC50 (A-549): 5200 nM | IC (TGI) (A-549): 6.98 nM | GI50 (HT-29): 5.86 nM | CC50 (HT-29): 13000 nM | IC (TGI) (HT-29): 13 nM | GI50 (LoVo): 3.09 nM | CC50 (LoVo): 11.4 nM | IC (TGI) (LoVo): 5.93 nM
